Read-outs that look alike come from different tables or passages of the source.
How the values were obtained:
[1] = Cytotoxicity assay J774, resazurin reduction; type: cell-based, murine; settings: mouse, J774 macrophage cells; for viability at 72 h, 2.5 µM: read-out: viability, J774 (2.5 µM); for viability at 72 h, 25 µM: read-out: viability, J774 (25 µM)
Description: (§1) Mammalian cell lines (J774 and HepG2) were passaged in RPMI media supplemented with MEM, Pen-Strep (1%) and 10% FCS. Cultures were kept at 37°C incubator with 5% CO2 in filter-cap flasks.
(§2) Murine macrophage cells (J774) and human hepatocyte carcinoma HepG2 cells were seeded at 0.5x10^5 cell/well in 384 well plates in triplicate, exposed to serial dilution of compounds, dispensed using an Echo 650 acoustic dispenser (Labcyte). After incubation for 72 h at 37°C, 5% CO2, cell viability was determined using fluorescence resazurin reduction assay (λEx: 550 nm; λEm: 590 nm).

[2] = tested on: T. cruzi trypomastigotes; assay: T. cruzi viability, resazurin reduction; type: cell-based, Trypanosoma cruzi; settings: Trypanosoma cruzi; for viability at 2.5 µM: read-out: viability, T.cruzi (2.5 µM); for viability at 25 µM: read-out: viability, T.cruzi (25 µM)
Description: T. cruzi (Y strain) trypomastigotes were passaged in liver infusion broth media supplemented with tryptose, NaCl, Na2HPO4, KCl, glucose, hemin, Pen-Strep (1%), 10% FCS (pH: 7.2) and kept at 28°C.
(§3) Viability of T. brucei brucei BSF and T. cruzi trypomastigotes was assayed with fluorescence resazurin reduction assay, essentially as described above. […] Next, selected compounds were tested at 2.5 μM concentration, and promising compounds subjected to 18 concentrations dose response analyses. AN3057 and AmB were used as a control drug in T. brucei and T. cruzi, respectively.

[3] = tested on: E. histolytica; assay: E. histolytica viability, ATP luminescence (Cell titer glo); type: cell-based, Entamoeba histolytica; settings: Entamoeba histolytica; for viability at 2.5 µM: read-out: viability, E.histolytica (2.5 µM); for viability at 25 µM: read-out: viability, E.histolytica (25 µM)
Description: Entamoeba histolytica (strain B2-5) was passaged in TY-1 medium (Trypticase peptone BBL, Yeast extract BBL, glucose, NaCl, K2HPO4, KH2PO4, cysteine, ascorbic acid, ammonium iron citrate, adult bovine serum, Diamond tween 80, penicillin G, amikacin (pH:6.8)) and kept in 37°C incubator in completely filled tubes with closed lid.
Viability of E. histolytica was assayed via a luminescence assay based on ATP quantification in the live cells. Briefly, 2.5x10^4 cell/ml were exposed to 25 μM of compounds in 96 well plates (non-transparent, tissue culture treated, flat bottom; SPL Life Sciences) in triplicate for 48h. Plates were incubated in sealed anaerobic bags (Oxoid AGS) together with an Anaerogen compact bag (Thermo Scientific) and anaerobic indicator (Thermo Scientific) at 37°C. Then, Cell titer glo reagent (Promega) was added to the reaction (1:5) according to manufacturers’ instruction. After 15 min of orbital shaking, followed by 10 min incubation at RT, ATP-bioluminescence was quantified at RT using a Synergy H1 plate reader (Synergy H1, BioTek). Metronidazole was included as control drug in all the assays for E. histolytica. Test compounds indicating significant growth reduction in the primary screen were subjected to potency determination. These secondary screens were essentially carried out as detailed above, but with a 9 to 16-point concentration range of the test compounds spanning 0.01–100 μM.

[4] = tested on: L. infantum promastigotes; assay: L. infantum promastigote viability, resazurin reduction; type: cell-based, Leishmania infantum; settings: Leishmania infantum, sheet LTC_compound_viability, value ± spread; for viability at 2.5 µM: read-out: viability, L. infantum promastigote (2.5 µM); for viability at 25 µM: read-out: viability, L. infantum promastigote (25 µM)
Source text: (§4) The infectivity of the parasites was boosted by passaging in Balb/c mice and culturing the infected lymph nodes after six weeks. L. infantum (MHOM / BR / 76 / M4192) parasite was passaged in the same media formulation with 0.5% urine.

[5] = tested on: L. major axenic amastigotes; assay: L. major axenic amastigote viability, resazurin reduction; settings: Leishmania major; for viability at 25 µM: read-out: viability, L.major amastigote (25 µM)
Description: L. major LV561(MHOM/IL/67/LRC-L137 JERICHO II) amastigotes were passaged in Grace insect medium supplemented with NaHCO3, 0.1% amikin and 20% of FCS (pH: 5.4) and kept at 33°C.
Exponential growth phase promastigotes of L. major or L. infantum and axenic amastigotes (L. major) were harvested and seeded in 384 well plates (white, non-transparent, tissue culture treated, flat bottom; Corning) (0.5x10^5 cells per well). Compounds were pre-dispensed into the plate with an Echo 650 acoustic dispenser (Beckman Coulter). After 72h incubation, resazurin was added (1:10 v/v) from a […] stock in PBS, followed by incubation for six hours. Then, fluorescence intensity was measured using a microplate reader (Synergy H1, BioTek) with excitation filter: 550 nm and emission filter: 590 nm. Efficient compounds were selected for the next round of viability assay with 2.5 μM concentrations of the compounds. […] All experiments were performed with AmB as a positive control drug in parallel.
Axenic amastigotes, the relevant form that persists in the infected host, were generated in the lab through established procedures, employing harsh pH (pH 5) and high temperature (33°C) conditions.

[6] = tested on: T. brucei brucei BSF; assay: T. brucei BSF viability, resazurin reduction; type: cell-based, Trypanosoma brucei brucei; settings: Trypanosoma brucei; for viability at 25 µM: read-out: viability, T.brucei (25 µM)
Description: T. brucei brucei (strain 427 Lister) blood stream form (BSF) parasites were passaged in complete HMI-9 media supplemented with 10% FCS, Pen-Strep (0.1%) and 2-mercaptoethanol (0.014 v/v) and kept in a 37° C CO2 incubator in filter-cap flasks.
as §3

[7] = tested on: intracellular L. infantum amastigotes; assay: Parasite rescue assay (intramacrophage, J774 infected with L. infantum); type: cell-based, Leishmania infantum; settings: J774, 25 µM; intracellular amastigote; read-out: viability, intracellular L. major amastigote (25 µM)
[8] = tested on: L. major promastigotes; assay: L. major promastigote viability, resazurin reduction; type: cell-based, Leishmania major; settings: Leishmania major, read-out: viability, L.major promastigote (25 µM)
Source text: as §4

[9] = tested on: Murine macrophage cells (J774); assay: Cytotoxicity assay J774, resazurin reduction; type: cell-based; settings: cytotoxicity, 72 h
Description: as §1, §2

[10] = tested on: intracellular L. infantum amastigotes; assay: Parasite rescue assay (intramacrophage, J774 infected with L. infantum); type: cell-based, Leishmania infantum
Description: After 24 h incubation, cells were washed five times with serum free RPMI and exposed to a serial dilution of test compounds, prepared using an acoustic dispenser (Echo 650, Labcyte), in RPMI (2% FCS). After two days, cells were washed thrice, and 20 μl of 0.05% SDS in RPMI was added upon removal of the supernatant. Upon incubation under orbital shaking for 30 seconds, cell lysis was stopped by addition of 180 μl M199 medium supplemented with 10% FCS. […] Then, fluorescence intensity of the samples was measured with a microplate reader (Synergy H1, BioTek) with λEx: 550 nm and λEm: 590 nm. Percent of viability was calculated according to cell only and media controls.
J774A.1 cells (J774) were infected with L. infantum metacyclic promastigotes. […] After controlled lysis of the infected macrophages, the released parasites were quantified using a resazurin based viability assay.

[11] = 2.5 µM, read-out: viability, T.brucei (2.5 µM)
[12] = 72 h, read-out: Residual viability, T.brucei (2.5 µM), BSF, 2.5 µM, 72 h

Row | SMILES | viability at 72 h, 2.5 µM [1] | viability at 72 h, 25 µM [1] | viability at 2.5 µM [2] | viability at 25 µM [2] | viability at 2.5 µM [3] | viability at 25 µM [3] | viability at 2.5 µM [4] | viability at 25 µM [4] | viability at 25 µM [5] | melting point | viability at 2.5 µM [6, 11] | viability at 25 µM [6] | viability at 2.5 µM [6, 12] | viability at 25 µM [7] | viability at 25 µM ([8]; 72 h) | viability at 25 µM ([8]; 25 µM) | further results
1 | N[C@@H](Cc1ccccc1)[C@@H](O)CNc1cccc(C(F)(F)F)c1 [LTC-1029, (2S,3S)-3-Amino-4-phenyl-1-((3-(trifluoromethyl)phenyl)amino)butan-2-ol] | 94.9 ± 4.03% | 91.9 ± 10.1% | 56.8 ± 2.34% | 6.68 ± 2.95% | 70.3 ± 18.1% | 15.4 ± 5.25% | 82.2 ± 2.25% | 0.37 ± 0.05% | 67.9 ± 2.07% | 72 to 74 °C | -0.97 ± 0.28% | 2.21 ± 0.85% | < 10% | 76.8 ± 12.2% | 88.9 ± 5.45% | -0.13 ± 0.19% | 
2 | CC(=O)c1ccc(NC[C@H](O)[C@@H](N)Cc2ccccc2)cc1 [LTC-1031, 1-(4-(((2S,3S)-3-Amino-2-hydroxy-4-phenylbutyl)amino)phenyl)ethan-1-one] | 95.4 ± 4.41% | -0.69 ± 0.73% | 58.4 ± 1.11% | 59.3 ± 2.74% | 74.1 ± 12.7% | 105 ± 18.2% | 83.7 ± 2.96% | 44.9 ± 6.2% | 70.9 ± 2.23% | 123 to 125 °C | 75.5 ± 4.37% | 2.18 ± 0.95% |  | 98 ± 5.56% | 91.6 ± 2.08% | 62.7 ± 3.51% | 
3 | N[C@@H](Cc1ccccc1)[C@@H](O)CNc1ccc(F)cc1F [LTC-1032, (2S,3S)-3-Amino-1-((2,4-difluorophenyl)amino)-4-phenylbutan-2-ol] | 96.3 ± 3.07% | 96.6 ± 11.9% | 59.8 ± 1.24% | 29 ± 1.22% | 56.3 ± 3.32% | 118 ± 17.6% | 84.1 ± 3.01% | 9.17 ± 0.49% | 76 ± 0.96% | 89 to 91 °C | -0.94 ± 0.33% | 2.18 ± 0.88% | < 10% | 73 ± 5.58% | 86.3 ± 2.23% | 0.57 ± 0.34% | 
4 | CC(C)(C)OC(=O)NC(Cc1ccccc1)C(O)CNc1ccc(C(C)(C)C)cc1 (stereo not shown) [LTC-1035] | 92.3 ± 5.33% | 95.4 ± 11.3% | 63.9 ± 2.75% | 25.6 ± 1.61% | 48.5 ± 2.26% | 101 ± 21.2% | 68.3 ± 1.6% | 0.84 ± 0.54% | 27.7 ± 0.6% |  | 71.2 ± 5.31% | 2.22 ± 0.96% |  | 11.4 ± 1.86% | 89.5 ± 1.08% | 2.19 ± 1.75% | EC50 ([9]; Mus musculus, J774, 72 h): > 25 µM; EC50 [9]: > 16 µM; viability at 2.5 µM ([5]; read-out: viability, L.major amastigote(2.5 µM)): 71.4 ± 0.91%; EC50 ([6]; read-out: EC50 T. brucei BSF, dose response, triplicate, ± SD (Table 2) / ± SE (S3 Table)): 2900 ± 1700 nM; EC50 ([10]; Leishmania infantum, J774, read-out: EC50 L. infantum rescue assay, intramacrophage (J774), 18 concentrations): 6.7 ± 1.7 µM; EC50 ([10]; read-out: EC50 L. infantum rescue assay, intramacrophage (J774), 18 concentrations): 6.67 ± 1.7 µM
